Data taken from patent US20180085423A1, “METHODS FOR TREATING AND DIAGNOSING EATING DISORDERS” (THE TRUSTEES OF COLUMBIA UNIVERSITY IN THE CITY OF NEW YORK, priority 2015, published 2018).
Entries after “also recorded” stand apart in the source; their conditions may differ. Starred links: 1 amine or outer side, 2 acyl side, 3 side chain; linkers in the order of their positions; H or OH if unused. Positions of bridges follow the written chain, without caps; N, C: chain ends. Residues, ends and D or L forms follow the SMILES beside them. X1 = O=C(CC1(S[*:2])CCCCC1)[*:1]

How the values were obtained:
[1] = system: wild-type C57BL6/J females; experiment: Block of the impact of central injection of AVP (3 ng i.c.v.) on food intake after an overnight fast; assay type: in vivo, mice; settings: fasted wild-type females; for reversal of AVP-induced hypophagia (1 hour food intake): peripheral injection, Compound 1 7 μg/kg, SR49059 2 mg/kg, AVP 3 ng i.c.v.
Protocol: First, it was confirmed that the antagonist compounds act as predicted by assessing their ability to block the impact of central injection of AVP (3 ng i.c.v.) on food intake after an overnight fast in wild-type C57BL6/J females.

[2] = system: Avpr1a−/− mutants (AVPR1a KO); experiment: Intra-amygdala AVP injection, food intake in Avpr1a-/- mutants; assay type: in vivo, mice; settings: 0.03 ng AVP intra-amygdala vs. saline
Protocol: (§1) In this example, it was tested whether the anorexic effect of AVP can also be achieved by intra-amygdala injections. The amygdala is a long structure extending from −0.58 mm to −2.5 mm to Bregma. To select the stereotaxic coordinates for the injections, qPCR for Avpr1a on serial 200 μm vibratome sections was performed across the entire amygdala. A peak of expression at −1.4 mm was observed. Unilateral injections of 0.03 ng AVP (vs. saline, in a random crossover design) were made into the amygdala of wild-type mice at this position (dorso-ventral −4.5 mm, lateral −2.4 mm (right side) and rostro-caudal −1.4 mm) (see FIG. 13A).
Since AVP can also bind to AVPR1b and OxtR, the intra-amygdala injections were repeated in Avpr1a−/− mutants (AVPR1a KO) as described above for the wild-type mice.

wild-type mice [3] = experiment: Intra-amygdala AVP injection, food intake in wild-type mice; assay type: in vivo; settings: 0.03 ng AVP unilateral intra-amygdala vs. saline
Protocol: as §1

wild-type mice [4] = experiment: Food intake after an overnight fast in wild-type mice injected with Compound 1; assay type: in vivo; settings: wild-type mice at 7-8 weeks of age, versus saline
Protocol: It was also investigated whether Compound 1 acts as a generic appetite stimulant. To test this idea, the impact of injecting Compound 1 after an overnight fast in wild-type mice at 7-8 weeks of age (FIG. 11, diamond data points) was tested.

GED mice = experiment: Food intake of GED mice during an aphagic episode after i.p. injection of an AVPR1A antagonist; assay type: in vivo; settings: for food intake versus saline-injected GED mice, 1 hour after treatment: Compound 1 7 μg/kg, SR49059 2 mg/kg
Protocol: In the morning of the first day of an aphagic episode (≧18 hr of aphagia), GED mice were injected i.p. with 7 μg/kg Compound 1 (Sigma) vs. saline.
To determine the extent to which treatment with Compound 1 rescued the normal drive to re-feed after overnight fast, food intake in a group of saline-injected GED mice that were eating normally were also measured, and were then subjected to an investigator-initiated overnight fast (a condition when AVPR1A should not be elevated in the amygdala) (triangle data points, FIG. 11).
Next, the possibility that AVPR1A antagonists could be used to restore feeding behavior in GED mice during an acute aphagic episode was explored. It was studied whether peripheral injection of Compound 1 and SR49059 can reverse anorexigenic behavior in the GED mouse model. To this end, the impact of i.p. injections of […] of Compound 1 vs. 2 mg/kg SR49059 vs. saline in the morning of the first day of an aphagic episode (≧18 h of aphagia) was assessed.
Mice were given ad libitum access to food immediately after the injection and food intake was measured after 1 hour and 2 hours.

[5] = GED mice during aphagic episode, i.p., 1 hour

Compound	effect of central injection of AVP on food intake ([1]; 3 ng AVP i.c.v. vs. saline)	effect of intra-amygdala AVP on food intake, Avpr1a−/− mutants [2]	effect of intra-amygdala AVP on food intake, wild-type mice (wild-type mice [3])	reversal of AVP-induced hypophagia (1 hour food intake) [1]	food intake in wild-type animals after an overnight fast (wild-type mice [4])	rescue of food intake at 1 hour relative to normally eating GED mice after overnight fast (GED mice; 7 μg/kg dose, 1 hour)	rescue of food intake at 2 hours relative to normally eating GED mice after overnight fast (GED mice; 7 μg/kg dose, 2 hour)	food intake versus saline-injected GED mice, 2 hours after treatment (GED mice; GED mice during aphagic episode, i.p., 2 hours)	food intake versus saline-injected GED mice, 1 hour after treatment (GED mice; [5])	reversal of AVP-induced hypophagia (1 hour food intake) ([1]; 2 mg/kg)
NC(=O)CC[C@@H]1NC(=O)[C@H](Cc2ccccc2)NC(=O)[C@H](Cc2ccc(O)cc2)NC(=O)[C@@H](N)CSSC[C@@H](C(=O)N2CCC[C@H]2C(=O)N[C@@H](CCCN=C(N)N)C(=O)NCC(N)=O)NC(=O)[C@H](CC(N)=O)NC1=O [AVP, arginine vasopressin]	hypophagia	did not affect food intake; also recorded: anorexic effect is not observed	food intake was reduced	–	–	–	–	–	–	–
COc1ccc(CC2NC(=O)CC3(CCCCC3)SSCC(C(=O)N3CCCC3C(=O)NC(CCCN=C(N)N)C(=O)NCC(N)=O)NC(=O)C(CC(N)=O)NC(=O)C(CCC(N)=O)NC(=O)C(Cc3ccccc3)NC2=O)cc1 (stereo not drawn) [Compound 1, 1-(beta-mercapto-betabeta-cycopentamethylenepropionic acid)-2-(O-methyl-Tyr)-argipressin] (Y(Me)FQNCPRG-NH2; linker N-5 via X1; configuration not given here)	–	–	–	can restore 1 hour food intake; also recorded: able to reverse hypophagia	did not impact food intake	partial rescue	nearly normalized	consumed significantly more food	consumed significantly more food	–
COc1ccc(S(=O)(=O)N2c3ccc(Cl)cc3[C@](O)(c3ccccc3Cl)[C@@H]2C(=O)N2CCC[C@H]2C(N)=O)cc1OC [SR49059]	–	–	–	–	–	–	–	–	did not enhance food intake	did not significantly reverse AVP-induced hypophagia; also recorded: did not have that effect
